The target of one experiment is TCR RLQ3. The class given is binding, human. The settings on record: read-out: KD of TCR RLQ3 for peptide–HLA-A2.
The term Kd denotes the free concentration of one partner at which half of the binding sites on the other are occupied at equilibrium, for simple one-to-one binding. Take RLAALNAFV [NL63-RLA]: the Kd was more than 100 µM.
Take RLAALNVFV [229E-RLA]: the Kd is more than 100 µM.
As for RLTALNAYV [HKU1-RLT], the Kd is more than 100 µM.
Turning to RLTTLNAFV [MERS-RLT], the Kd is more than 100 µM.

In another experiment the test system is TCR YLQ7. The class given is binding, human.
Details: not given
Take YLAPRTFML [GD_pangolin YLQ ortholog]: the “Measured TCR ΔΔG, YLQ7” value is 1.7 kcal/mol.

Staying with this experiment, now noted: read-out: KD of TCR YLQ7 for peptide–HLA-A2.
In the case of KLQPLTFLL [MERS-KLQ], the Kd is more than 50 µM.
The same measure, in the same setting: with PLSKRQYLL [HKU1-PLS] the figure was more than 50 µM; with PLTSRQYLL [OC43-PLT], more than 50 µM; with YLKPTTFML [SARS-YLK], more than 50 µM.
